Data as given in article PMC10666625, “Exploring the benefits of in-diet versus repeated oral dosing of saracatinib (AZD0530) in chronic studies: insights into pharmacokinetics and animal welfare” (Frontiers in Veterinary Science, 2023).

Experiments:
[1] = parameters: method as in PMID 19775203; settings: healthy humans, 250 mg/day once daily for 10–14 days; cited from earlier work
[2] = Stability at room temperature in solution or in diet by LC-MS/MS; type: physicochemical
Description: Samples were submitted to the W.M. Keck Metabolomics Research Laboratory (Office of Biotechnology, Iowa State University, Ames, IA) for targeted saracatinib LC–MS/MS quantification. One or two food pellets (1.5–3 g) were homogenized by mortar-and-pestle before being transferred and weighed in glass tubes with Teflon-lined screw caps. A reagent control sample was generated for each sample batch which was prepared in the same fashion as the samples. The weighed samples were then spiked with the internal standard, 250 μg of S-Hexylglutathione (Sigma-Aldrich CO., St. Louis, MO), added as 1.0 mL of from a 0.25 mg/mL solution in LC–MS grade 9:1 methanol: acetonitrile (Fisher Scientific, Waltham, MA). The extraction was initiated by the addition of 8 mL of 90% LC–MS grade methanol with 10% LC–MS grade water (Fisher Scientific, Waltham, MA). […]
LC separations were performed with an Agilent Technologies 1,290 Infinity Binary Pump UHPLC instrument equipped with an Agilent Technologies Eclipse C18 1.8 μm 2.1 mm × 100 mm analytical column that was coupled to an Agilent Technologies 6,540 UHD Accurate-Mass Q-TOF mass spectrometer (Agilent Technologies, Santa Clara, CA). […] Saracatinib was detected using electrospray ionization in positive ionization mode. […] During LC–MS data acquisition, reference masses were monitored for continuous mass calibration: m/z 121.050873 with m/z 922.009698. […]

[3] = system: kainate (KA) model of temporal lobe epilepsy; parameters: method as in PMID 34087381; settings: treating for a week, repeated oral dosing; cited from earlier work
[4] = 7-day repeated daily oral dosing study: serum and hippocampal concentrations; type: in vivo, Sprague Dawley rats
Description: (§1) The animals were randomized into four experimental groups (n = 4–8). In group 1 (24 h study; Figure 1A), eight animals received a single oral gavage of saracatinib (20 mg/kg), and the blood sampling was done at 0.5, 1, 2, 4, 6, 8, 12, and 24 h post-treatment. Four animals each were euthanized at 4 h and 24 h, respectively. In group 2 (7-day repeated oral dosing study; Figure 1B), eight animals received repeated daily oral dosing of saracatinib (20 mg/kg of rat) at 24 h intervals; the blood sampling was done daily at 24 h intervals before the next dosing. Four animals were euthanized 24 h after the third repeated oral dosing, i.e., day 3 and the other four animals were euthanized at day 7. Group 3 (7-day SAR-in-Diet study; Figure 1C), received a single oral gavage of saracatinib (20 mg/kg of rat) followed by 24 h later SAR-in-Diet for 7 days (260 ppm). The blood sampling was done at 24 h post oral and daily at 24 h intervals for 7 days while the animals were on SAR-in-Diet. Four animals each were euthanized on day 3 and 7. Group 4 (Figure 1D) included four animals that were given 7 repeated doses of oral saracatinib (20 mg/kg/day for a week) followed by ad-libitum SAR-in-Diet at varying concentrations fed for up to 18 weeks (260 ppm diet for 2 weeks, 210 ppm diet for a week, 160 ppm for 4 weeks, and 50 ppm diet for 11 weeks) The tapering concentrations of saracatinib in the diet from 260 to 50 ppm was done to target a daily saracatinib dose rate in the range of 20–5 mg/kg respectively, in a 24 h feeding cycle. Blood samples were collected at the end of each diet change.
(§2) Samples were submitted to the W.M. Keck Metabolomics Research Laboratory (Office of Biotechnology, Iowa State University, Ames, IA) for targeted saracatinib LC–MS/MS quantification. Serum and hippocampus preparations were conducted using a modified version of the previously available extraction and sample preparation methods previously established ([18], [19]). 50–75 μL or 50–75 mg wet weight of each sample was added to microcentrifuge tubes. […]

[5] = Hippocampal concentrations after a single oral dose (24 h study); type: in vivo, Sprague Dawley rats; settings: single oral dose 20 mg/kg
Description: as §1, §2

[6] = system: organophosphate (OP) induced epilepsy models; parameters: method as in PMID 35052568; settings: treatment for a week; cited from earlier work
[7] = Serum pharmacokinetics after a single oral dose (24 h study), LC-MS/MS, noncompartmental analysis; type: in vivo, Sprague Dawley rats
Description: Twenty eight adult male Sprague Dawley rats (8 weeks old; 250-300 g; Charles River, United States) were used in the study. Animals were housed in individual cages with a 12-h light–dark cycle in an enriched environment. The experiments were conducted after 2–3 days of acclimatization as per the approved protocols by the Institutional Animal Care and Use Committees (IACUC protocol: 21–109) and complied with the NIH ARRIVE Guidelines for the Care and Use of Laboratory Animals. Blood sampling was done by retro-orbital puncture as per IACUC protocol. Maximal blood collection was limited to less than 7.5% of the […] in one week. The serum was separated by centrifugation at 1,000–1,500 × g for 10 min and stored at −80°C until further analysis. All animals were euthanized at the end of the study with pentobarbital sodium and phenytoin sodium (100 mg/kg, i.p.) as per the American Veterinary Medical Association Guidelines for euthanasia. Tissue samples were collected and stored at −80°C until further analysis.
as §1
Samples were submitted to the W.M. Keck Metabolomics Research Laboratory (Office of Biotechnology, Iowa State University, Ames, IA) for targeted saracatinib LC–MS/MS quantification. Serum and hippocampus preparations were conducted using a modified version of the previously available extraction and sample preparation methods previously established ([18], [19]). 50–75 μL or 50–75 mg wet weight of each sample was added to microcentrifuge tubes. A Reagent control sample was generated for each sample batch, 75 μL of 0.9% NaCl which was extracted in the same fashion as the samples. The weighed samples were then spiked with the internal standard, 1.25 μg of S-Hexylglutathione (Sigma-Aldrich CO., St. Louis, MO), added as 10 μL of from a 0.125 mg/mL solution in LC–MS grade 9:1 methanol: acetonitrile (Fisher Scientific, Waltham, MA). The extraction was initiated by the addition of 0.4 mL of 90% ice-cold LC–MS grade methanol with 10% LC–MS grade water (Fisher Scientific, Waltham, MA). For the hippocampus samples, after adding the 90% methanol to the samples, two 2.4 mm metal beads were added to each sample, the tissue was then homogenized using a Bead Mill 24 Homogenizer (Thermo Fisher Scientific, Inc., Waltham, MA, United States). […]

ABCB1 = system: ABCB1; parameters: method as in PMID 22623106; settings: cited from earlier work
[8] = male, Sprague Dawley, single oral dose 20 mg/kg, rat serum, median, n=4

CN1CCN(CCOc2cc(OC3CCOCC3)c3c(Nc4c(Cl)ccc5c4OCO5)ncnc3c2)CC1 [saracatinib, Saracatinib]
T1/2 [1]: 40 h | Tolerability [1]: well tolerated | Time stable at room temperature [2]: > 4 weeks | Stability at room temperature (percent) ([2]; >4 weeks): 97 ± 1.56% | Long-term effects (reactive gliosis, neurodegeneration, epileptiform spiking, spontaneously recurring seizures) [3]: sufficient to mitigate long-term effects | concentration at 3 day ([4]; male, Sprague Dawley, rat, hippocampus, repeated oral dosing 20 mg/kg/day, day 3, read-out: Hippocampal saracatinib concentration): 239 ± 143 ng/g | concentration at 7 day ([4]; male, Sprague Dawley, rat, hippocampus, repeated oral dosing 20 mg/kg/day, day 7, read-out: Hippocampal saracatinib concentration): 271 ± 62.3 ng/g | Serum saracatinib concentration (trough, 24 h after dose) ([4]; repeated daily oral dosing 20 mg/kg, first three days): ~ 100 ng/mL | concentration at 4 h ([5]; male, Sprague Dawley, rat, hippocampus, 4 h, read-out: Hippocampal level): > 500 ng/g | Hippocampal versus serum concentrations ([5]; 4 h and 24 h): higher than the serum concentrations | Hippocampal concentration at 24 h compared to 4 h ([5]; 24 h): dropped to nearly half | Protective effects [6]: limited | Time saracatinib was detected in the serum ([7]; after a single oral dose 20 mg/kg): up to 24 h | Tmax ([7]; male, Sprague Dawley, rat, serum, po, 20 mg/kg, single oral dose 20 mg/kg, rat serum, median, n=4): 6 h | AUC(0-t) ([7]; male, Sprague Dawley, single oral dose 20 mg/kg, rat serum, 0 to 24 h, median, n=4, read-out: AUC (0-tlast)): 6990 ng·h/mL | AUC(0-inf) [7, 8]: 7060 ng·h/mL | CL/F [7, 8]: 47.2 mL/min/kg | Cmax [7, 8]: 954 ng/mL | Vd/F [7, 8]: 15.6 L/kg | half-life [7, 8]: 4.12 h | k el [7, 8]: 5e-05 s⁻¹ | Effect on ABCB1 (ABCB1): only inhibits ABCB1 transport function, without altering ABCB1 expression or AKT phosphorylation
